Reference: ChEMBL document CHEMBL5543174, “A Nonbactericidal Anionic Antimicrobial Peptide Provides Prophylactic and Therapeutic Efficacies against Bacterial Infections in Mice by Immunomodulatory-Antithrombotic Duality” (J Med Chem, 2024)
Activity calls are given as the source filed them. The rule behind the calls is not given here.

What was measured:
Escherichia coli [1] = experiment: Antibacterial activity against Carbapenem-resistant Escherichia coli infected in C57BL/6 mouse assessed as reduction in IL-6 level in peritoneal fluid at 10 mg/kg,ip pre-administrated 5 hrs before bacterial infection measured after 24 hrs by ELISA; format: functional, organism-based; conditions: time 29.0 hrs
Escherichia coli [2] = experiment: Antibacterial activity against Carbapenem-resistant Escherichia coli infected in C57BL/6 mouse assessed as reduction in TNF-alpha level in peritoneal fluid at 10 mg/kg,ip administrated 5 hrs after bacterial infection measured after 24 hrs by ELISA; format: functional, organism-based; conditions: time 19.0 hrs
Mus musculus [3] = experiment: Anticoagulation activity in mouse infected with Carbapenem-resistant Escherichia coli assessed as increase in plasma AT-III expression at 10 mg/kg,ip pre-administrated 5 hrs before bacterial infection measured after 24 hrs by ELISA; format: functional, organism-based; conditions: time 29.0 hrs
Escherichia coli [4] = experiment: Antibacterial activity against Carbapenem-resistant Escherichia coli infected in C57BL/6 mouse assessed as reduction in IL-1beta level in serum at 10 mg/kg,ip administrated 5 hrs after bacterial infection measured after 24 hrs by ELISA; format: functional, organism-based; conditions: time 19.0 hrs
Escherichia coli [5] = experiment: Antibacterial activity against Carbapenem-resistant Escherichia coli infected in C57BL/6 mouse assessed as reduction in TNF-alpha level in peritoneal fluid at 10 mg/kg,ip pre-administrated 5 hrs before bacterial infection measured after 24 hrs by ELISA; format: functional, organism-based; conditions: time 29.0 hrs
Staphylococcus aureus [6] = experiment: Antimicrobial activity against Methicillin-resistant Staphylococcus aureus assessed as reduction in metabolic activity at < 200 ug/ml incubated for 1 to 4 hrs by CCK-8 assay; format: functional, organism-based; conditions: dose < 200.0 µg/ml, time 1-4 hrs
Mus musculus [7] = experiment: Anticoagulation activity in mouse assessed as change in plasma APC expression at 10 mg/kg,ip measured after 24 hrs by ELISA; format: functional, organism-based
Staphylococcus aureus [8] = experiment: Antibacterial activity against Methicillin-resistant Staphylococcus aureus infected in C57BL/6 mouse assessed as increase in survival rate at 10 mg/kg,ip administrated 5 hrs after bacterial infection measured after 7 days; format: functional, organism-based; conditions: time 7.0 day
Peritoneal macrophage [9] = experiment: Induction of nitric oxide production in mouse Peritoneal macrophage incubated for 6 hrs by Griess reagent based ELISA; format: functional, cell-based
Staphylococcus aureus [10] = experiment: Antibacterial activity against Methicillin-resistant Staphylococcus aureus infected in C57BL/6 mouse assessed as reduction in IL-6 level in peritoneal fluid at 10 mg/kg,ip pre-administrated 5 hrs before bacterial infection measured after 24 hrs by ELISA; format: functional, organism-based; conditions: time 29.0 hrs
Peritoneal macrophage [11] = experiment: Immunomodulatory activity in mouse Peritoneal macrophage assessed as decrease in LPS-induced IL-6 production at 25 to 100 ug/ml incubated for 6 hrs by ELISA; format: functional, cell-based; conditions: dose 25-100 µg/ml
[12] = test system: Peritoneal macrophage cell; experiment: Induction of chemotaxis in mouse Peritoneal macrophage assessed as increase in macrophage migration at 100 ug/ml preincubated with MTS510 for 30 mins followed by compound addition measured after 8 hrs by crystal violet staining based indirect transwell assay; format: functional, cell-based; conditions: dose 100.0 µg/ml
Peritoneal macrophage [13] = experiment: Immunomodulatory activity in mouse Peritoneal macrophage assessed as decrease in LTA-induced IL-1beta production at 25 to 100 ug/ml incubated for 6 hrs by ELISA; format: functional, cell-based; conditions: dose 25-100 µg/ml
Bacillus subtilis = experiment: Antimicrobial activity against Bacillus subtilis ATCC6633 assessed as inhibition of microbial growth at <= 200 ug/ml incubated for 18 hrs by micro-broth dilution method; format: functional, organism-based; conditions: dose <= 200.0 µg/ml
Neutrophil [14] = experiment: Induction of degranulation in mouse bone marrow derived neutrophil assessed as increase in lactoferrin release at 25 to 100 ug/ml incubated for 6 hrs by ELISA; format: functional, cell-based; conditions: dose 25-100 µg/ml
Staphylococcus aureus [15] = experiment: Antibacterial activity against Staphylococcus aureus ATCC 25923 infected in C57BL/6 mouse assessed as reduction in IL-1beta level in serum at 10 mg/kg,ip pre-administrated 5 hrs before bacterial infection measured after 24 hrs by ELISA; format: functional, organism-based; conditions: time 29.0 hrs
Escherichia coli [16] = experiment: Antibacterial activity against Carbapenem-resistant Escherichia coli infected in C57BL/6 mouse with cyclophosphamide-induced neutrophil depletion model assessed as decrease in bacterial burden in peritoneal cavity at 10 mg/kg,ip administrated 5 hrs after bacterial infection measured after 24 hrs; format: functional, organism-based; conditions: time 19.0 hrs
Escherichia coli [17] = experiment: Antibacterial activity against Escherichia coli ATCC 25922 infected in C57BL/6 mouse assessed as reduction in IL-6 level in peritoneal fluid at 10 mg/kg,ip administrated 5 hrs after bacterial infection measured after 24 hrs by ELISA; format: functional, organism-based; conditions: time 19.0 hrs
Escherichia coli [18] = experiment: Antibacterial activity against Carbapenem-resistant Escherichia coli infected in C57BL/6 mouse assessed as reduction in inflammatory injury in lung at 10 mg/kg,ip administrated 5 hrs after bacterial infection measured after 24 hrs by hematoxylin and eosin staining based analysis; format: functional, organism-based; conditions: time 19.0 hrs
Peritoneal macrophage [19] = experiment: Induction of chemotaxis in mouse Peritoneal macrophage assessed as upregulation of CXCL1 production at 100 ug/ml preincubated with WRW4 followed by compound addition by ELISA; format: functional, cell-based; conditions: dose 100.0 µg/ml
Staphylococcus aureus [20] = experiment: Antibacterial activity against Methicillin-resistant Staphylococcus aureus infected in C57BL/6 mouse assessed as increase in survival rate at 10 mg/kg,ip pre-administrated 5 hrs before bacterial infection measured after 7 days; format: functional, organism-based; conditions: time 7.0 day
Neutrophil [21] = experiment: Induction of immune response in mouse bone marrow derived neutrophil assessed as neutrophil extracellular trap formation at 100 ug/ml incubated for 4 hrs by DAPI staining based fluorescence microscopic analysis; format: functional, cell-based; conditions: dose 100.0 µg/ml
Mus musculus [22] = experiment: Immunomodulatory activity in clodronate liposome immunosuppressed C57BL/6 mouse with monocyte depletion model assessed as increase in number of monocyte in peritoneal lavage at 10 mg/kg,ip administration measured after 5 hrs by flow cytometry; format: functional, organism-based
Lymphocyte = experiment: Immunomodulatory activity in mouse mesenteric lymph node derived lymphocyte assessed as increase in lymphocyte proliferation at < 200 ug/ml incubated for 24 hrs by CCK-8 assay; format: functional, cell-based; conditions: dose < 200.0 µg/ml
Peritoneal macrophage [23] = experiment: Induction of chemotaxis in mouse Peritoneal macrophage assessed as upregulation of MCP-1 production at 100 ug/ml preincubated with KN-62 followed by compound addition by ELISA; format: functional, cell-based; conditions: dose 100.0 µg/ml
Escherichia coli [24] = experiment: Antimicrobial activity against Carbapenem-resistant Escherichia coli assessed as reduction in microbial colony forming unit at 200 ug/ml incubated for 1 to 4 hrs by time-kill kinetics based analysis; format: functional, organism-based; conditions: dose 200.0 µg/ml, time 1-4 hrs
Mus musculus [25] = experiment: Antithrombotic activity in C57BL/6 mouse tail transection model assessed as increase in tail bleeding time at 30 mg/kg,SC administration; format: functional, organism-based
Neutrophil [26] = experiment: Induction of degranulation in mouse bone marrow derived neutrophil assessed as increase in BD-2 release at 25 to 100 ug/ml incubated for 6 hrs by ELISA; format: functional, cell-based; conditions: dose 25-100 µg/ml
Pseudomonas aeruginosa = experiment: Antimicrobial activity against Pseudomonas aeruginosa ATCC 27853 assessed as inhibition of microbial growth at <= 200 ug/ml incubated for 18 hrs by micro-broth dilution method; format: functional, organism-based; conditions: dose <= 200.0 µg/ml
Peritoneal macrophage [27] = experiment: Induction of chemotaxis in mouse Peritoneal macrophage assessed as upregulation of IL-6 expression at 25 to 100 ug/ml incubated for 6 hrs by ELISA; format: functional, cell-based; conditions: dose 25-100 µg/ml
Mus musculus [28] = experiment: Anticoagulation activity in mouse infected with Methicillin-resistant Staphylococcus aureus assessed as increase in plasma TFPI expression at 10 mg/kg,ip pre-administrated 5 hrs before bacterial infection measured after 24 hrs by ELISA; format: functional, organism-based; conditions: time 29.0 hrs

Compound: CC[C@H](C)[C@H](NC(=O)[C@@H]1CSSC[C@H](NC(=O)[C@H](CCC(=O)O)NC(=O)[C@@H](NC(=O)[C@H](CCCCN)NC(=O)[C@H](Cc2c[nH]cn2)NC(=O)[C@@H](NC(=O)[C@H](CCCCN)NC(=O)[C@H](CCC(=O)O)NC(=O)[C@H](C)NC(=O)[C@H](CCC(=O)O)NC(=O)[C@H](CCC(=O)O)NC(=O)[C@H](CCC(=O)O)NC(=O)[C@H](C)N)[C@@H](C)O)[C@@H](C)O)C(=O)N[C@@H](CC(C)C)C(=O)N[C@@H](CCC(=O)O)C(=O)N1)C(=O)N[C@@H](Cc1ccccc1)C(=O)N[C@H](C(=O)N[C@@H](CC(C)C)C(=O)N[C@@H](CC(C)C)C(=O)N1CCC[C@H]1C(=O)N1CCC[C@@H]1C(=O)N[C@H](C)C(=O)O)[C@@H](C)O
- Activity (Escherichia coli [1]): Active
- Activity (Escherichia coli [2]): Active
- Activity (Mus musculus [3]): Active
- Activity (Escherichia coli [4]): Active
- Activity (Escherichia coli [5]): Active
- Activity (Staphylococcus aureus [6]): inactive
- Activity (Mus musculus [7]): inactive
- Activity (Staphylococcus aureus [8]): Active
- Activity (Peritoneal macrophage [9]): Dose-Dependent Effect
- Activity (Staphylococcus aureus [10]): Active
- Activity (Peritoneal macrophage [11]): inactive
- Activity [12]: Active
- Activity (Peritoneal macrophage [13]): inactive
- Activity (Bacillus subtilis): inactive
- Activity (Neutrophil [14]): Active
- Activity (Staphylococcus aureus [15]): Active
- Activity (Escherichia coli [16]): inactive
- Activity (Escherichia coli [17]): Active
- Activity (Escherichia coli [18]): Active
- Activity (Peritoneal macrophage [19]): Active
- Activity (Staphylococcus aureus [20]): Active
- Activity (Neutrophil [21]): Active
- Activity (Mus musculus [22]): Active
- Activity (Lymphocyte): inactive
- Activity (Peritoneal macrophage [23]): Active
- Activity (Escherichia coli [24]): inactive
- Activity (Mus musculus [25]): inactive
- Activity (Neutrophil [26]): inactive
- Activity (Pseudomonas aeruginosa): inactive
- Activity (Peritoneal macrophage [27]): inactive
- Activity (Mus musculus [28]): Active
